Experiments:
[1] = tested on: Bst DNA polymerase, Taq DNA polymerase, MMLV-RT; experiment: Polymerase extension of 32P-labeled 12-mer primer on synthetic 30-mer template to full-length product; assay type: biochemical; conditions: all three polymerases
Procedure: The ability of the Bacillus sterothermophilus (Bst) DNA polymerase (New England Biolabs), the Thermus aquaticus (Taq) DNA polymerase (Amersham) and the Moloney Murine Leukemia Virus reverse transcriptase (MMLV-RT) (Amersham) to incorporate the 2-amino-2′-deoxyadenosine-5′-triphosphate and 2-thiothymidine-5′-triphosphate into polynucleotides was tested using a synthetic 30-mer template and ^32P-labeled 12-mer primer (S.A. 130 Ci/mmol). (FIG. 2A). Extension reactions for each polymerase were performed in 0.65 ml pre-siliconized microfuge tubes containing the following components: (Bst) 20 mM Tris-Cl (pH 8.8 @ 25° C.), 10 mM KCl, 10 mM (NH4)2SO4, 2 mM MgSO4, 0.1% Triton-X100, 0.5 microM primer/template, 250 microM each dNTP and 0.15 units/microL Bst DNA polymerase; (Taq) 26 mM Tris-Cl (pH 9.5 @25° C.), 6.5 mM MgCl2, 0.5 microM primer/template, 250 microM each dNTP and 0.15 units/microL Taq DNA polymerase; (MMLV-RT) 50 mM Tris-Cl (pH 8.3 @ 25° C.) 75 mM KCl, 3 mM MgCl2, […], 0.5 microM primer/template, 250 microM each dNTP and 0.5 units/microL MMLV-RT. The reactions were incubated for 15 minutes at 65° C. for the Bst and Taq reactions and 42° C. for the MMLV-RT reaction. The reaction mixtures were separated by electrophoresis on 10% denaturing (7M urea) polyacrylamide gels and visualized by phosphorimaging methods.

Bst DNA polymerase = target: T1, Bst DNA polymerase (Geobacillus stearothermophilus, UniProt P52026); experiment: Single nucleotide extension of 6-mer primers at varying dNTP concentration; assay type: biochemical; conditions: for extension efficiency of 6-mer primer compared with natural dNTP: dNTP 0.5 microM to 130 microM, 45° C., 8 hours
T1 construct: purchased New England Biolabs
T1 sequence (P52026 290-876 limits assumed): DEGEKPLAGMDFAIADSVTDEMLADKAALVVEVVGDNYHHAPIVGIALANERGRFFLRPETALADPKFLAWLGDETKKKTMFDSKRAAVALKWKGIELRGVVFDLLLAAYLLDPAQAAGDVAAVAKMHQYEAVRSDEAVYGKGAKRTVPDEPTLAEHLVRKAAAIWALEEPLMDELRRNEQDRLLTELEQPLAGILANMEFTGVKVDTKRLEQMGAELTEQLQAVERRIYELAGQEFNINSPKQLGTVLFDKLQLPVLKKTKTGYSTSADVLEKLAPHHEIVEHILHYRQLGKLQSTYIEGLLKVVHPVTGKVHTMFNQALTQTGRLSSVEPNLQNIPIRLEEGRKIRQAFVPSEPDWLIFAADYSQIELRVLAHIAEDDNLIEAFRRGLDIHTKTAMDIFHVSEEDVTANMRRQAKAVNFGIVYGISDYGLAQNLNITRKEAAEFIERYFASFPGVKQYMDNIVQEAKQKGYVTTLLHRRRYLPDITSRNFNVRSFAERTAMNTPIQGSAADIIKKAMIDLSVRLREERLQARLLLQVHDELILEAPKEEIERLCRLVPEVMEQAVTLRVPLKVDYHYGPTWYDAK
Procedure: To further assess the incorporation efficiency of the modified nucleotides by Bst DNA polymerase, the efficiency for a single nucleotide extension reaction was determined using two 6-mer primers in the presence of varying concentrations of dATP, 2-amino-2′-deoxyadenosine-5′-triphosphate, dTTP or 2-thiothymidine-5′-triphosphate (illustrated as 2-thioTTP) (FIGS. 3A and 4A). For this study, the reaction mixtures contained: 20 mM Tris-Cl (pH 8.8 @ 25° C.), 10 mM KCl, 10 mM (NH4)2SO4, 2 mM MgSO4, 0.1% Triton-X100, 500 nanoM 6-mer primer, 20 nanoM 30-mer DNA template, 0.8 units/microL (˜70 nanoM) Bst DNA polymerase and a dNTP concentration ranging from 0.5 microM to 130 microM. The reaction mixtures were incubated at 45° C. for 8 hours and separated by electrophoresis on 20% denaturing (7M urea) polyacrylamide gels.

With Cc1cn([C@H]2C[C@H](O)[C@@H](COP(=O)(O)OP(=O)(O)OP(=O)(O)O)O2)c(=S)[nH]c1=O [2-thiothymidine-5′-triphosphate] the “full-length product when both analogues are substituted for A and T in a single reaction mixture” value [1] was “full-length product was generated”, the EC50 (Bst DNA polymerase) was roughly 6 µM and the “extension efficiency of 6-mer primer compared with natural dNTP” value (Bst DNA polymerase) was “very similar”.

Nc1nc(N)c2ncn([C@H]3C[C@H](O)[C@@H](COP(=O)(O)OP(=O)(O)OP(=O)(O)O)O3)c2n1 [2-amino-2′-deoxyadenosine-5′-triphosphate] was tested, and the “full-length product when both analogues are substituted for A and T in a single reaction mixture” value [1] was “full-length product was generated” and the “extension efficiency of 6-mer primer compared with natural dNTP” value (Bst DNA polymerase) was “approximately equal efficiencies”.
